In patent publication US20250213519A1, “SYNERGY FOR INCREASING INSULIN SENSITIVITY” (Board of Supervisors of Louisiana State University and …, priority 2022, published 2025):
“Also recorded” adds a separate entry of the source.

What was measured:
human adipocytes [1] = experiment: mRNA levels (qRT-PCR) in human adipocyte cultures treated for seven days; format: cell-based; conditions: for effects on gene expression of myricetin added to NRBC: added to nar ext + β-carotene, nanomolar myricetin
Description: In adipocytes, CDK5 inhibitors reduce adipogenesis and increase genes for energy expenditure by altering PPARγ target gene selection. We measured the expression of the PPARα/γ direct target gene UCP1 after treating human adipocyte cultures with CDK5-inhibiting flavonols combined with naringenin for seven days.
Human adipose-derived stem cells from overweight and obese female donors were purchased from LaCell, LLC (New Orleans, Louisiana) or isolated from lipoaspirate waste donated post-surgery from women with obesity using methods as previously described (31). Cells were seeded, maintained until two days after becoming confluent, and differentiated into adipocytes in the presence of rosiglitazone and isobutylmethylxanthine for five days as previously described (25). […], dissolved in DMSO at 1000×, started 5 days after the differentiation period and lasted for seven days in adipocyte maintenance medium with heat inactivated serum, before RNA and protein were isolated from adipocyte cultures.
Quantitative reverse transcriptase and real-time PCR were conducted in one reaction with the gene-specific reverse PCR primer also priming the cDNA synthesis as previously described (25). Primer-probe sequences for UCP1, GLUT4, ATGL, adiponectin, PGC-1α and ribosomal RPL13A, used to adjust target gene values for total RNA in each sample, have been previously reported (25). […] Predesigned human primer and probe sets from Thermofisher Scientific are PM20D1 Hs00399438_m1; ANGPTL4 Hs00211522_m1; GDF11 Hs00195156_m1; S100B Hs00902901_m1.

[2] = 25° C.; cited from earlier work
human adipocytes [3] = experiment: Protein levels by Western blotting in human adipocytes treated for seven days; format: cell-based; conditions: for PGC-1α protein, myricetin added to NRBC: 50 nM myricetin + NRBC, compared to NRBC
GLP-1R = GLP-1R (Homo sapiens, UniProt P43220); conditions: cited from earlier work
GLP-1R, sequence (P43220 24-463, species assumed): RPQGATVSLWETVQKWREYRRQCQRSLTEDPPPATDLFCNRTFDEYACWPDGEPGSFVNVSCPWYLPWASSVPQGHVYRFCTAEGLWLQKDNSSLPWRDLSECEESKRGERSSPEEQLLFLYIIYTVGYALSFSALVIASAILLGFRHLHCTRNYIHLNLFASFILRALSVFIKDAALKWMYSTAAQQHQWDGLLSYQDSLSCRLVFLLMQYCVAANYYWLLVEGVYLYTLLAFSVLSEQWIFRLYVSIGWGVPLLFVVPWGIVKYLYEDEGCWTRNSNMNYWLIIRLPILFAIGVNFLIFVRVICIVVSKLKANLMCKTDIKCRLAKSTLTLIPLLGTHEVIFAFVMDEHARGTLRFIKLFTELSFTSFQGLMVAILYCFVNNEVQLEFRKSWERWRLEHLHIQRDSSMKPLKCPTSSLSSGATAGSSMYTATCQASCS

Compound: O=c1c(O)c(-c2cc(O)c(O)c(O)c2)oc2cc(O)cc(O)c12 [myricetin]
- UCP1 and GLUT4 mRNA, flavonol combined with naringenin (human adipocytes [1]; 2.5 μM flavonol + 8 μM naringenin extract, 7 days, vs naringenin alone (FIG. 1)): synergistically increased expression of UCP1 and GLUT4
- most active myricetin concentration with naringenin extract and β-carotene (human adipocytes [1]; 25, 50 and 100 nM tested with NRBC): 50 nM
- myricetin concentration with most potent upregulation of gene expression (human adipocytes [1]; added to 8 μM naringenin, 0.1 μM to 6 μM tested): 0.1 µM
- effects on gene expression of myricetin added to NRBC (human adipocytes [1]): further upregulates gene expression; also recorded: almost doubles; also recorded: approximately doubles
- effects on gene expression of myricetin added to NRBC (human adipocytes [1]; listed as Myricetin): enhances the effects on gene expression
- increase in UCP-1 and GLUT-4 with naringenin (human adipocytes [1]; human fat cells, myricetin with naringenin): many fold greater increase in UCP-1 and GLUT-4
- gene expression, myricetin alone (human adipocytes [1]; low nanomolar concentrations, 7 days): no effect at any concentration
- effects on gene expression combined with naringenin (human adipocytes [1]; myricetin 5 nM + 8 μM naringenin ext): slightly reduced
- effects on gene expression combined with naringenin (human adipocytes [1]; myricetin 50 nM and 25 nM + 8 μM naringenin ext): remained strong
- upregulation of thermogenic gene expression and adiponectin (human adipocytes [1]; myricetin added to naringenin alone or to naringenin and beta carotene): approximately doubles
- stability half-life [2]: 23 h
- PGC-1α protein, myricetin added to NR (human adipocytes [3]; 50 nM myricetin + 8 μM NR): small increase
- PGC-1α protein, myricetin added to NRBC (human adipocytes [3]): two-fold higher
- PGC-1α protein, myricetin added to NRBC (human adipocytes [3]; listed as Myricetin): over two-fold
- PGC-1α protein levels (human adipocytes [3]; 50 nM myricetin, 7 days): robustly upregulated
- GLP-1R agonist activity (GLP-1R): activity as a GLP-1R agonist at low micromolar concentrations
